# Test results from patent US20200338044A1 (PCI Biotech AS, priority 2016, published 2020).
# Entries after “also recorded” stand apart in the source; their conditions may differ.
# Tests used:
# [1] = tested on: TFK-1 cell line; assay: Cytotoxicity of gemcitabine without PCI, MTT assay; format: cell-based, human
# Description: The cell lines used were TFK-1 and EGI-1, both were obtained from the Department of Cancer Prevention, The Norwegian Radium Hospital, Oslo, Norway. TFK-1 is a human papillary bile duct adenocarcinoma cell line and EGI-1 is a poorly differentiated human bile duct adenocarcinoma cell line. Both cell lines originate from extrahepatic tumours (Saijyo et al., 1995, Tohoku J. Exp. Med., 177:61-71; EGI-1—Cell LINCS Library of Intergrated network-based Cellular Signatures. Available from the website having the URL beginning with “lincs” and ending with “.hms.harvard.edu/db/cells/50181/”), but are quite different both morphologically and physiologically (Xu et al., 2013, Clinical Cancer Research, January 1; 19(1):118-27; Pignochino et al., 2010, BMC Cancer, 10:631).
# The MTT method (tetrazolium dye reduction) was performed 48 h after light exposure with Lumisource. The culture medium was removed and cells were incubated in medium containing 0.25 mg/ml MTT (Sigma) for approximately 3 hours before replacement with 100 μl of 99% dimethylsulfoxide (Sigma). The 96 well plates were set on a shaker for 5 minutes before absorbance was measured at 570 nm with a power wave XS2 (Biotek, VT, USA). Wells without cells incubated with MTT-medium only were used for blank subtraction.
# [2] = tested on: NCI-H460 human lung cancer tumour cells; assay: Tumour growth of subcutaneous NCI-H460 xenografts after PCI with gemcitabine; format: in vivo, Nude (nu/nu) athymic mice; conditions: for No. of animals alive at the end of study: 10 animals at start
# Procedure: Nude (nu/nu) athymic mice (female, CD-1 nu/nu strain, at least 6 weeks old) were used which have been used extensively to generate human tumour xenografts and remain the experimental method of choice for testing anti-tumour efficacy of new compounds prior to administration in man. The route of administration of the test substances was intravenous. The dose of Amphinex® was 5 mg/kg, based on earlier mouse studies performed by PCI Biotech AS and collaborators.
# There were 6 treatment groups with 10 mice per group. Mice were injected subcutaneously with 7×10^7 cells/mL NCI-H460 tumour cells to allow selection of optimal tumours for inclusion in the study. Tumours of the appropriate size were allocated to the various treatment groups.
# Amphinex® was administered intravenously via a tail vein, using a dose volume of 4 mL/kg.
# Human NCI-H460 non-small cell lung cancer cells (American Type Culture Collection [ATCC], Maryland, USA, or the European Collection of Cell Cultures [ECACC], Porton Down, UK) were harvested from sub-confluent cultures growing in vitro and the number of viable cells determined. Cells were then re-suspended in sterile phosphate buffered saline (PBS) at a concentration of approximately 7×10^7 cells/mL. Nude (nu/nu) athymic mice were injected subcutaneously in the right flank with approximately 7×10^6 NCI-H460 cells in a volume of 0.1 mL. Animals were examined regularly for the appearance of tumours. When measurable tumours had established in the majority of mice, animals were assigned into 6 treatment groups with a target of up to 10 mice per group. Mice received an intravenous injection of Amphinex when the tumours had reached a size such that the tumour volume was approximately in the range 100 to 150 mm^3 72 hours later.
# For tumour illumination each animal was restrained, one at a time, in a metal restraint which allows only the lower flank area, i.e. tumour area plus a 2 mm diameter surrounding area, to be exposed. A 650 nm diode laser (TWI Diode Laser, Quanta System, Italy) was then used to expose the tumour tissue to a light dose of 15 J/cm^2, with a fluence rate of 90 mW/cm^2. Each animal had their tumour exposed to the laser for approximately 167 s, to give the required dose of 15 J/cm^2.
# Tumour size was measured at least twice weekly using digital callipers for up to 4 weeks following illumination or until the tumour size (as specified in the UK Home Office Licence) or other clinical signs necessitated removal of that mouse from the study. Tumour dimensions were recorded (length and width), and tumour volumes calculated using the formula (W^2×L)/2, where W is the […] tumour dimension and L is the longest. Animals were terminated if the tumour size had become excessive or any adverse effects were noted.
# The tumour dimensions measured over the period of the study—length (L, long) and width (W, short) in mm, were recorded and kept as raw data. The mean tumour volumes on the first day of treatment were reported for each group. Calculations of relative tumour volumes and plots of mean tumour growth curves were performed. Body weight data were also obtained.
# [3] = tested on: TFK-1 cell line; assay: PCI with gemcitabine, MTT cytotoxicity assay; format: cell-based, human
# Procedure: (§1) Di (monoethanolammonium) meso-tetraphenyl chlorin disulfonate (TPCS2a/Amphinex®) was provided by PCI Biotech AS (Lysaker, Norway). Amphinex batch number: FAMP 1002. TPCS2a (in 3% polysorbate 80, 2.8% mannitol, 50 mM Tris pH 8.5) stock solution (0.4 mg/ml) was kept at 4° C. in aliquots and light protected. All work with the photosensitizer was performed under subdued light.
# (§2) Illumination of the cells was performed by using Lumisource (PCI Biotech, Oslo). This lamp consists of four standard light tubes (18 W/tube, Osram L 18/67), which emit blue light with a main peak at approximately 435 nm and was used for excitation of TPCS2a. The irradiance emitted from the blue light source was 12 mW/cm^2 and varied less than 10% across the illumination area (765 cm^2). The light source was air-cooled during light exposure to keep the irradiance stable and prevent cells from hyperthermia.
# (§3) Cells were seeded in 96-well or 6-well plates (Nunclon, Nunc, Roskilde, Denmark) and allowed to attach at 37° C. overnight. […]
# (§4) The MTT method (tetrazolium dye reduction) was performed 48 h after light exposure with Lumisource. […] The 96 well plates were set on a shaker for 5 minutes before absorbance was measured at 570 nm with a power wave XS2 (Biotek, VT, USA). […]
# [4] = tested on: EGI-1 cell line; assay: Cytotoxicity of gemcitabine without PCI, MTT assay; format: cell-based, human
# Description: The cell lines used were TFK-1 and EGI-1, both were obtained from the Department of Cancer Prevention, The Norwegian Radium Hospital, Oslo, Norway. TFK-1 is a human papillary bile duct adenocarcinoma cell line and EGI-1 is a poorly differentiated human bile duct adenocarcinoma cell line. Both cell lines originate from extrahepatic tumours (Saijyo et al., 1995, Tohoku J. Exp. Med., 177:61-71; EGI-1-Cell LINCS Library of Intergrated network-based Cellular Signatures. Available from the website having the URL beginning with “[…] ending with “.hms.harvard.edu/db/cells/50181/”), but are quite different both morphologically and physiologically (Xu et al., 2013, Clinical Cancer Research, January 1; 19(1):118-27; Pignochino et al., 2010, BMC Cancer, 10:631).
# [5] = tested on: EGI-1 cell line
# Procedure: as §1, §2, §3, §4
# [6] = tested on: TFK-1 cells; assay: Colony formation assay after PCI treatment; format: cell-based, human
# Procedure: Cells (25 000 cells/well) were seeded out in 6 well plates (Nunc) and allowed to adhere overnight and subjected to photochemical treatment described above. The cells were placed in the incubator and the culture medium was replaced with fresh culture medium after 3 days incubation. […] Subsequently, cells were washed in H2O and then dried before being evaluated by visual inspection.
# [7] = 4 hours exposure, up to 1 mM tested, data not shown
# [8] = gemcitabine 100 nM alone, no PCI
molecule,measurement,setting,value
"Nc1ccn([C@@H]2O[C@H](CO)[C@@H](O)C2(F)F)c(=O)n1 [Gemcitabine, 4-amino-1-(2-deoxy-2,2-difluoro-β-D-erythro-pentofuranosyl)pyrimidin-2(1H)-on]",cytotoxic effect,[1]; [7],only a very modest cytotoxic effect
same,cytotoxicity,"[1]; 72 hours exposure, 3 μM gemcitabine",about 50%
same,effect on tumour growth,"[2]; gemcitabine 200 mg/kg i.v., PCI: Amphinex 5 mg/kg i.v. + 650 nm 15 J/cm^2",no
same,effect on tumour growth,"[2]; gemcitabine 200 mg/kg i.v., PCI: Amphinex 5 mg/kg i.v. + 650 nm 15 J/cm^2, listed as gemcitabine",neither the photochemical treatment alone (PCI alone) nor gemcitabine alone had a significant effect on tumour growth
same,No. of animals alive at the end of study,[2]; gemcitabine 200 mg/kg,5
same,effect on tumour growth,"[2]; gemcitabine 400 mg/kg i.v., PCI: Amphinex 5 mg/kg i.v. + 650 nm 15 J/cm^2",only a very modest; also recorded: neither the photochemical treatment alone (PCI alone) nor gemcitabine alone (Gemcitabine 400 mg/kg) had a significant effect on tumour growth
same,No. of animals alive at the end of study,[2]; gemcitabine 400 mg/kg,6
same,cytotoxic effect,[3]; [8],about 50%
same,cell killing (>90% level),"[4]; 3 000 nM gemcitabine without PCI, 72 hours",this level of cell killing was not obtained
same,cytotoxic effect,[4]; [7],only a very modest cytotoxic effect
same,sensitivity to gemcitabine (cytotoxicity),"[4]; 72 hours exposure, highest dose employed (up to 3 μM)",insensitive
same,effect on cell survival,[5]; [8],no effect on cell survival
same,colony forming ability,"[6]; gemcitabine 10 nM, PCI illumination time 140 s",substantial colony formation was observed
same,colony forming ability,[6]; gemcitabine 33 nM,some colony formation could be observed
same,colony forming ability,[6]; gemcitabine 100 nM,unable to form colonies
same,colony forming ability,[6]; gemcitabine 330 nM,unable to form colonies
Di (monoethanolammonium) meso-tetraphenyl chlorin disulfonate [PCI alone],No. of animals alive at the end of study,"[2]; Amphinex 5 mg/kg + laser, no gemcitabine",2
same,effect on tumour growth,"[2]; Amphinex 5 mg/kg i.v. + laser 15 J/cm^2, without gemcitabine",virtually no effect; also recorded: neither the photochemical treatment alone (PCI alone) nor gemcitabine alone (Gemcitabine 400 mg/kg) had a significant effect on tumour growth
same,effect on cell survival,"[3]; photochemical treatment alone, 0.4 μg/ml TPCS2a + blue light",only a modest effect on cell survival
same,cells killed,"[5]; photochemical treatment alone, highest light dose",about 50%
same,colony forming ability,"[6]; PCI alone, illumination time 140 s",still had the ability to form colonies
